Measurements: patent publication US7897582B2, “Oligonucleotide compositions and methods for the modulation of the expression of B7 protein” (Isis Pharmaceuticals, Inc., priority 2003, dated 2011)
Strand notation (5' to 3'): a small letter for the sugar, then the base; units joined by * are phosphorothioate-linked, units joined directly phosphodiester-linked; [ ] holds rarer units or linkages, { } end groups; capitals alone tell only the bases. e = 2'-O-(2-methoxyethyl) (MOE); [5mC] = 5-methylcytosine; d = 2'-deoxy (DNA)

System: human B7.2 mRNA
Test: Human B7.2 mRNA levels in THP-1 cells by quantitative real-time PCR (Example 27)
Assay type: cell-based
Design: concentration or dose not given beside the values
Excerpt: In accordance with the present invention, an additional series of antisense compounds were designed to target different regions of the human B7.2 RNA, using published sequences (GenBank accession number U04343.1, incorporated herein as SEQ ID NO: 295, GenBank accession number BC040261.1, incorporated herein as SEQ ID NO: 296 and GenBank accession number NT—005543.12, a portion of which is incorporated herein as SEQ ID NO: 297). “Target site” indicates the first (5′-most) nucleotide number on the particular target sequence to which the compound binds. All compounds in Table 25 are chimeric oligonucleotides (“gapmers”) 20 nucleotides in length, composed of a central “gap” region consisting of ten 2′-deoxynucleotides, which is flanked on both sides (5′ and 3′ directions) by five-nucleotide “wings”. The wings are composed of 2′-methoxyethyl (2′-MOE)nucleotides. The internucleoside (backbone) linkages are phosphorothioate (P═S) throughout the oligonucleotide. All cytidine residues are 5-methylcytidines. The compounds were analyzed for their effect on human B7.2 mRNA levels in THP-1 cells by quantitative real-time PCR as described in other examples herein. Data are averages from three experiments. If present, “N.D.” indicates “no data”.

Substance	% INHIB (inhibition of human B7.2 mRNA levels)
323670 (antisense eA*eG*eA*e[5mC]*eA*dA*dG*d[5mC]*dT*dG*dA*dT*dG*dG*dA*eA*eA*e[5mC]*eG*eT) [compound 323670]	19%
323671 (antisense eG*eA*eA*eA*e[5mC]*dA*dG*dA*d[5mC]*dA*dA*dG*d[5mC]*dT*dG*eA*eT*eG*eG*eA) [compound 323671]	26%
323672 (antisense eG*eG*eA*eA*eT*dG*dA*dA*dA*d[5mC]*dA*dG*dA*d[5mC]*dA*eA*eG*e[5mC]*eT*eG) [compound 323672]	33%
323673 (antisense e[5mC]*eA*eT*e[5mC]*eA*dG*dG*dG*dA*dA*dT*dG*dA*dA*dA*e[5mC]*eA*eG*eA*e[5mC]) [compound 323673]	38%
323674 (antisense e[5mC]*eG*eT*eA*eA*d[5mC]*dA*dT*d[5mC]*dA*dG*dG*dG*dA*dA*eT*eG*eA*eA*eA) [compound 323674]	47%
323675 (antisense eA*eG*e[5mC]*eT*e[5mC]*dT*dA*dT*dA*dG*dA*dG*dA*dA*dA*eG*eG*eT*eG*eA) [compound 323675]	77%
323676 (antisense e[5mC]*e[5mC]*eT*e[5mC]*eA*dA*dG*d[5mC]*dT*d[5mC]*dT*dA*dT*dA*dG*eA*eG*eA*eA*eA) [compound 323676]	24%
323677 (antisense eG*eG*eA*eG*eG*d[5mC]*dT*dG*dA*dG*dG*dG*dT*d[5mC]*d[5mC]*eT*e[5mC]*eA*eA*eG) [compound 323677]	55%
323678 (antisense eA*eG*eT*eA*e[5mC]*dA*dG*d[5mC]*dT*dG*dT*dA*dA*dT*d[5mC]*e[5mC]*eA*eA*eG*eG) [compound 323678]	23%
323679 (antisense eT*eT*eG*eG*eA*dA*dG*dT*dA*d[5mC]*dA*dG*d[5mC]*dT*dG*eT*eA*eA*eT*e[5mC]) [compound 323679]	60%
323680 (antisense eA*eT*eA*eA*eT*dA*dA*d[5mC]*dT*dG*dT*dT*dG*dG*dA*eA*eG*eT*eA*e[5mC]) [compound 323680]	51%
323681 (antisense e[5mC]*eA*eT*e[5mC]*eA*d[5mC]*dA*d[5mC]*dA*dT*dA*dT*dA*dA*dT*eA*eA*e[5mC]*eT*eG) [compound 323681]	8%
323682 (antisense eT*e[5mC]*e[5mC]*eA*eT*dT*dT*d[5mC]*d[5mC]*dA*dT*dA*dG*dA*dA*eT*eT*eA*eG*eA) [compound 323682]	35%
323683 (antisense eT*e[5mC]*eT*eT*e[5mC]*dT*dT*d[5mC]*d[5mC]*dA*dT*dT*dT*d[5mC]*d[5mC]*eA*eT*eA*eG*eA) [compound 323683]	16%
323684 (antisense eA*eT*eT*eT*eA*dT*dA*dA*dG*dA*dG*dT*dT*dG*d[5mC]*eG*eA*eG*eG*e[5mC]) [compound 323684]	32%
323685 (antisense eT*eT*eG*eG*eT*dT*d[5mC]*d[5mC]*dA*d[5mC]*dA*dT*dT*dT*dA*eT*eA*eA*eG*eA) [compound 323685]	18%
323686 (antisense e[5mC]*eT*e[5mC]*eT*e[5mC]*d[5mC]*dA*dT*dT*dG*dT*dG*dT*dT*dG*eG*eT*eT*e[5mC]*e[5mC]) [compound 323686]	53%
323687 (antisense e[5mC]*eT*eT*e[5mC]*e[5mC]*d[5mC]*dT*d[5mC]*dT*d[5mC]*d[5mC]*dA*dT*dT*dG*eT*eG*eT*eT*eG) [compound 323687]	19%
323688 (antisense eT*eG*eG*eT*e[5mC]*dT*dG*dT*dT*d[5mC]*dA*d[5mC]*dT*d[5mC]*dT*e[5mC]*eT*eT*e[5mC]*e[5mC]) [compound 323688]	58%
323689 (antisense eT*eT*e[5mC]*eA*eT*d[5mC]*dA*dG*dA*dT*d[5mC]*dT*dT*dT*d[5mC]*eA*eG*eG*eT*eA) [compound 323689]	43%
323690 (antisense eA*eT*e[5mC]*eA*e[5mC]*dT*dT*dT*dT*dG*dT*d[5mC]*dG*d[5mC]*dA*eT*eG*eA*eA*eG) [compound 323690]	82%
323691 (antisense eG*e[5mC]*eT*eT*eT*dA*d[5mC]*dT*d[5mC]*dT*dT*dT*dA*dA*dT*eT*eA*eA*eA*eA) [compound 323691]	40%
323692 (antisense eG*eT*eA*eT*eG*dG*dG*d[5mC]*dT*dT*dT*dA*d[5mC]*dT*d[5mC]*eT*eT*eT*eA*eA) [compound 323692]	57%
323693 (antisense eA*eT*eA*e[5mC]*eT*dT*dG*dT*dA*dT*dG*dG*dG*d[5mC]*dT*eT*eT*eA*e[5mC]*eT) [compound 323693]	62%
323694 (antisense eA*eA*eT*eG*eA*dA*dT*dA*d[5mC]*dT*dT*dG*dT*dA*dT*eG*eG*eG*e[5mC]*eT) [compound 323694]	71%
